Converted amounts (≈) assume the structure as drawn. Like-named read-outs stand apart in the source and are kept apart here.
Key:
[1] = Solubility in PBS with 0.2% (w/v) tween 20 at 37° C.; assay type: physicochemical; details: for solubility: PBS with 0.2% (w/v) tween 20, 37° C., overnight
Experimental: 20 mg Form 2 crystalline (+)-TBZ was dispersed into 1 ml PBS with 0.2% (w/v) tween 20. Then, this excessively saturated suspension was stirred overnight at 37° C. 0.8 ml of former suspension was transferred into 1.5 mL Eppendorf centrifuge tube. The undissolved solid was spun down using bench-top centrifuge at the rotation of 14000 rpm for 5 min.
• Flow rate: 0.3 mL/min • Column temp: 55° C. • Injection volume: 2 uL • Detection: 220 nm • Run time: 10 min • (+)-TBZ retention time: ˜3.5 min

[2] = Metabolism in rat liver microsome (RLM); assay type: in vitro ADME
Experimental: Rat liver microsome (RLM) study was conducted to investigate the generation of pharmaceutically active metabolites of Form 2 (+)-TBZ and TBZ racemate.

[3] = patients, dose escalation; cited from earlier work
[4] = in vivo; cited from earlier work
dopamine receptors = details: cited from earlier work
[5] = compared with TBZ; cited from earlier work
[6] = Powder flow property, angle of repose (USP 1174); assay type: physicochemical
Source text: The present application enables the production of crystalline (+)-TBZ in various particle size ranges and crystal morphology (e.g. rod-shaped crystals and more symmetric crystals). As API powder/crystalline flowability can be critical in the manufacture of a drug product, flow property of crystalline (+)-TBZ in the present application was investigated.

For `COc1cc2c(cc1OC)C1CC(=O)C(CC(C)C)CN1CC2` (racemic) [TBZ racemate, 1,3,4,6,7,11b-hexahydro-9,10-dimethoxy-3-(2-methylpropyl)-2H-benzo[a]quinolizin-2-one], the “less solubility compared to Form 2 crystalline (+)-TBZ” value ([1]; PBS with 0.2% w/v Tween 20) was “about 40%”, the solubility ([1]; aqueous with cosolvent or surfactant or cyclodextrin, thermodynamic from solid, read-out: Solubility) was 36.4 µg/mL (≈ 115 µM) and the half-life ([2]; liver microsomes, rat liver microsome, read-out: Half-life) was 10.6 min. The “side-effect: akathisia” value [3] was 9.5%, the “side-effect: depression” value [3] was 15.0% and the “side-effect: drowsiness” value [3] was 36.5%. For the same molecule, the “side-effect: insomnia” value [3] was 11.0%, the “side-effect: nervousness or anxiety” value [3] was 10.3% and the “side-effect: parkinsonism” value [3] was 28.5%. The bioavailability [4] was “low and variable”.

In the case of `COc1cc2c(cc1OC)[C@H]1C[C@@H](O)[C@H](CC(C)C)CN1CC2` [(2R,3R,11bR)-DHTBZ], the “binding at dopamine receptors” value (dopamine receptors) is listed as “negligible binding” and the sedative effects [5] is listed as “lack the unwanted sedative effects”.

For `COc1cc2c(cc1OC)[C@H]1C[C@H](O)[C@H](CC(C)C)CN1CC2` [(2S,3R,11bR)-DHTBZ], the “binding at dopamine receptors” value (dopamine receptors) is listed as “negligible binding” and the sedative effects [5] is listed as “lack the unwanted sedative effects”.

With `COc1cc2c(cc1OC)[C@H]1CC(=O)[C@H](CC(C)C)CN1CC2` [Form 2 crystalline (+)-TBZ, (3R,11bR)-tetrabenazine] the “Response Angle” value ([6]; D50 15 μm) was 45.3 ± 5.0 °, the “Response Angle” value ([6]; D50 35 μm) was 43.3 ± 2.5 ° and the “Response Angle” value ([6]; D50 50 μm) was 36.7 ± 7.6 °. The “Response Angle” value ([6]; D50 80 μm, more symmetric crystals) was 34.7 ± 1.2 °, the “Response Angle” value ([6]; D50 80 μm, more symmetric crystals, listed as more symmetric crystalline (+)-TBZ) was “about 35 °” and the “Response Angle” value ([6]; D50 125 μm) was 35.3 ± 2.3 °. For the same molecule, the “Response Angle” value ([6]; Rod shape (80 μm)) was 64.3 ± 1.2 °, the “Response Angle” value ([6]; Rod shape (80 μm), listed as rod-shaped crystalline (+)-TBZ) was “about 64 °” and the solubility [1] was 61.032 µg/mL (≈ 192 µM). The “(+)-DHTBZ concentration in RLM” value ([2]; 0 min) was 0 ng/mL, the “(+)-TBZ concentration in RLM” value ([2]; 0 min) was 2056 ng/mL and the “(−)-DHTBZ concentration in RLM” value ([2]; 0 min) was 0 ng/mL. The “(−)-TBZ concentration in RLM” value ([2]; 0 min) was 0 ng/mL, the “(+)-DHTBZ concentration in RLM” value ([2]; 15 min) was 455 ng/mL and the “(+)-TBZ concentration in RLM” value ([2]; 15 min) was 881 ng/mL. The “(−)-DHTBZ concentration in RLM” value ([2]; 15 min) was 0 ng/mL, the “(−)-TBZ concentration in RLM” value ([2]; 15 min) was 0 ng/mL and the “(+)-DHTBZ concentration in RLM” value ([2]; 30 min) was 608 ng/mL. The “(+)-TBZ concentration in RLM” value ([2]; 30 min) was 366 ng/mL, the “(−)-DHTBZ concentration in RLM” value ([2]; 30 min) was 0 ng/mL and the “(−)-TBZ concentration in RLM” value ([2]; 30 min) was 0 ng/mL. The “(+)-DHTBZ concentration in RLM” value ([2]; 45 min) was 616 ng/mL, the “(+)-TBZ concentration in RLM” value ([2]; 45 min) was 122 ng/mL and the “(−)-DHTBZ concentration in RLM” value ([2]; 45 min) was 0 ng/mL. The “(−)-TBZ concentration in RLM” value ([2]; 45 min) was 0 ng/mL, the “(+)-DHTBZ concentration in RLM” value ([2]; 60 min) was 627 ng/mL and the “(+)-TBZ concentration in RLM” value ([2]; 60 min) was 42 ng/mL. For the same molecule, the “(−)-DHTBZ concentration in RLM” value ([2]; 60 min) was 0 ng/mL, the “(−)-TBZ concentration in RLM” value ([2]; 60 min) was 0 ng/mL and the “amounts of therapeutically active VMAT2 inhibitors, (+)-TBZ and (+)-DHTBZ, generated in RLM versus racemate TBZ” value ([2]; rat liver microsome) was “comparable amounts”. The half-life ([2]; rat liver microsome) was 10.6 min.
